A value given as a limit tells only on which side of the number the result lay.

Experiment [1] relates to SARS-CoV-2 replicon. Briefly: microbe, parasite or virus in culture. Type of experiment: cell-based. To be noted: Severe acute respiratory syndrome coronavirus 2, Huh-7.
Experiment [2] has as its target SARS-CoV-2 Papain-like (PLpro) protease (Severe acute respiratory syndrome coronavirus 2, UniProt P0DTD1). Nature of the experiment: SARS-CoV-2 Papain-like (PLpro) protease biochemical enzyme inhibition assay (ubiquitin-fluorophore substrate, Ub-R110). Conditions: Ub-R110 substrate; run in duplicate; read-out: PLpro IC50.

The term EC50 denotes the concentration needed to bring the measured effect to its halfway point. Lower therefore signals an effect from little substance. For orientation: IC50 means the point on the concentration scale where inhibition reaches its midpoint. `N#CCNC(=O)C(=O)NCc1ccccc1C(=O)NC1(c2cc(-c3cnn(C4CC4)c3)cc3ncccc23)CC1` [Example 415]: the EC50 in experiment [1] lay within 1000 to 10000 nM. Moreover, the IC50 in experiment [2] is below 100 nM.
Taken in the same sequence, the figures for `C=C(C)c1ccc(-c2cc(C3(NC(=O)c4ccccc4CNC(=O)[C@H]4CCN(C#N)C4)CC3)c3ccccc3c2)s1` [Example 418] were below 1000 nM and below 100 nM.
Taken in the same sequence, the figures for `N#CN1CC[C@H](C(=O)NCc2ccccc2C(=O)NC2(c3cc(-c4cnn(C5CC5)c4)cc4ncccc34)CC2)C1` [Example 419] were below 1000 nM and below 100 nM.
Taken in the same sequence, the figures for `N#CCNC(=O)C(=O)NCc1ccccc1C(=O)NC1(c2ccnc3cc(Cl)ccc23)CC1` [Example 423] were 1000 to 10000 nM and below 100 nM.
For the molecule `CC(C)(O)CCc1cc(C2(NC(=O)c3ccccc3CNC(=O)C(=O)NCC#N)CC2)c2ccccc2c1` [Example 424], in experiment [1], the half-maximal effective concentration (EC50) was 1000 to 10000 nM. For the same molecule, the half-maximal inhibitory concentration (IC50) in experiment [2] was below 100 nM.
Taken in the same sequence, the figures for `N#CCNC(=O)C(=O)NCc1ccccc1C(=O)NC1(c2cc(-c3cnn[nH]3)cc3ccccc23)CC1` [Example 425] were below 1000 nM and below 100 nM.
Consider `COC(=O)Cn1cc(-c2cc(C3(NC(=O)c4ccccc4CNC(=O)C(=O)NCC#N)CC3)c3ccccc3c2)nn1` [Example 426], for which, in experiment [1], the EC50 fell in the range of 1000 to 10000 nM. Besides, the concentration for half-maximal inhibition (IC50) in experiment [2] was below 100 nM.
Taken in the same sequence, the figures for `N#CCNC(=O)C(=O)NCc1ccccc1C(=O)NC1(c2cc(-c3cn(-c4ccccn4)nn3)cc3ccccc23)CC1` [Example 427] were below 1000 nM and below 100 nM.
Taken in the same sequence, the figures for `CN1C(=O)c2cccc3c(C4(NC(=O)c5ccccc5CNC(=O)C(=O)NCC#N)CC4)ccc1c23` [Example 428] were 1000 to 10000 nM and below 100 nM.
Taken in the same sequence, the figures for `CC1(CNC(=O)C(=O)NCc2ccccc2C(=O)NC2(c3cccc4ccccc34)CC2)CN(C#N)C1` [Example 429] were below 1000 nM and below 100 nM.
The molecule `N#CN1CC(CNC(=O)C(=O)NCc2ccccc2C(=O)NC2(c3cc(F)cc(-c4cnn(C5CC5)c4)c3)CC2)C1` [Example 431] returned a concentration for a half-maximal effect (EC50) in experiment [1] of 1000 to 10000 nM. In addition, the IC50 in experiment [2] fell in the range of 100 to 1000 nM.
On to `Cn1cc2cc(C3(NC(=O)c4ccccc4CNC(=O)C(=O)NCC4CN(C#N)C4)CC3)ccc2n1` [Example 432], for which the EC50 in experiment [1] was 1000 to 10000 nM. Moreover, the IC50 in experiment [2] fell in the range of 100 to 1000 nM.
Taken in the same sequence, the figures for `N#CCNC(=O)C(=O)NCc1ccccc1C(=O)NC1(c2ccc3c4c(cccc24)C(=O)N3)CC1` [Example 434] were 1000 to 10000 nM and below 100 nM.
Taken in the same sequence, the figures for `N#CN1CC(CNC(=O)C(=O)NCc2ccccc2C(=O)NC2(c3cccc4ccccc34)CC2)C1` [Example 435] were below 1000 nM and below 100 nM.
In experiment [1], `N#C/C=C/CNC(=O)C(=O)NCc1ccccc1C(=O)NC1(c2ccc3c4c(cccc24)CC3)CC1` [Example 438] returned an EC50 below 1000 nM. Moreover, in experiment [2], the IC50 is below 100 nM.
Taken in the same sequence, the figures for `N#CCNC(=O)C(=O)NCc1ccccc1C(=O)NC1(c2ccc3c4c(cccc24)CC3)CC1` [Example 439] were below 1000 nM and below 100 nM.
Taken in the same sequence, the figures for `O=C(NCC#Cc1nccs1)C(=O)NCc1ccccc1C(=O)NC1(c2ccc3c4c(cccc24)CC3)CC1` [Example 440] were below 1000 nM and below 100 nM.
Taken in the same sequence, the figures for `C#CCNC(=O)C(=O)NCc1ccccc1C(=O)NC1(c2ccc3c4c(cccc24)CC3)CC1` [Example 441, N1-(2-((1-(1,2-dihydroacenaphthylen-5-yl)cyclopropyl)carbamoyl)benzyl)-N2-(prop-2-yn-1-yl)oxalamide] were below 1000 nM and below 100 nM.
With `O=C(NCC#Cc1nccs1)C(=O)NCc1ccccc1C(=O)NC1(c2cc(Cl)cc(-c3ccccc3F)c2)CC1` [Example 442], the EC50 in experiment [1] was below 1000 nM. In experiment [2], the concentration for half-maximal inhibition (IC50) was below 100 nM.
Taken in the same sequence, the figures for `O=C(NCC#Cc1nccs1)C(=O)NCc1ccccc1C(=O)NC1(c2cc(Cl)cc(-c3cc4ccccc4s3)c2)CC1` [Example 443] were below 1000 nM and below 100 nM.
Taken in the same sequence, the figures for `C#CCNC(=O)C(=O)NCc1ccccc1C(=O)NC1(c2cc(Cl)cc(-c3ccccc3F)c2)CC1` [Example 444] were below 1000 nM and below 100 nM.
Taken in the same sequence, the figures for `C#CCNC(=O)C(=O)NCc1ccccc1C(=O)NC1(c2cc(Cl)cc(-c3cc4ccccc4s3)c2)CC1` [Example 445] were 1000 to 10000 nM and below 100 nM.
For `O=C(NCC#Cc1nccs1)C(=O)NCc1ccccc1C(=O)NC1(c2cc(Cl)cc(-c3cncs3)c2)CC1` [Example 446], the concentration giving a half-maximal response (EC50) in experiment [1] was below 1000 nM. Moreover, the IC50 in experiment [2] was below 100 nM.
In the case of `C#CCNC(=O)C(=O)NCc1ccccc1C(=O)NC1(c2cc(Cl)cc(-c3cncs3)c2)CC1` [Example 447], the EC50 in experiment [1] was below 1000 nM. For the same molecule, in experiment [2], the 50% inhibitory concentration (IC50) was below 100 nM.
`N#CCNC(=O)C(=O)NCc1ccccc1C(=O)NC1(c2cc(Cl)cc(-c3cncs3)c2)CC1` [Example 448]: the concentration for a half-maximal effect (EC50) in experiment [1] is 1000 to 10000 nM. The IC50 in experiment [2] is below 100 nM.
Taken in the same sequence, the figures for `O=C(NCC#Cc1nccs1)C(=O)NCc1ccccc1C(=O)NC1(c2cc(Cl)cc(-c3cnco3)c2)CC1` [Example 449] were below 1000 nM and below 100 nM.
Taken in the same sequence, the figures for `C#CCNC(=O)C(=O)NCc1ccccc1C(=O)NC1(c2cc(Cl)cc(-c3cnco3)c2)CC1` [Example 450] were below 1000 nM and below 100 nM.
Taken in the same sequence, the figures for `N#CCNC(=O)C(=O)NCc1ccccc1C(=O)NC1(c2cc(Cl)cc(-c3cnco3)c2)CC1` [Example 451] were 1000 to 10000 nM and below 100 nM.
Molecule `N#CCNC(=O)C(=O)NCc1ccccc1C(=O)NC1(c2cc(-c3cccs3)cc(-c3cccs3)c2)CC1` [Example 452] yielded an EC50 in experiment [1] of 1000 to 10000 nM. The IC50 in experiment [2] is below 100 nM.
Taken in the same sequence, the figures for `C#CCNC(=O)C(=O)NCc1ccccc1C(=O)NC1(c2cc(Cl)cc(-c3cnn(C4CC4)c3)c2)CC1` [Example 453] were below 1000 nM and below 100 nM.
Taken in the same sequence, the figures for `N#CCNC(=O)C(=O)NCc1ccccc1C(=O)NC1(c2cc(Cl)cc(-c3cnn(C4CC4)c3)c2)CC1` [Example 454] were 1000 to 10000 nM and below 100 nM.
Taken in the same sequence, the figures for `N#CCNC(=O)C(=O)NCc1ccccc1C(=O)NC1(c2cc(Cl)cc(Br)c2)CC1` [Example 455] were above 10000 nM and 100 to 1000 nM.
As to `N#CCNC(=O)C(=O)NCc1ccccc1C(=O)NC1(c2cc(Cl)cc(-c3cnn(C(F)F)c3)c2)CC1` [Example 456], in experiment [1], the concentration for a half-maximal effect (EC50) fell in the range of 1000 to 10000 nM. Also, the 50% inhibitory concentration (IC50) in experiment [2] was below 100 nM.
Taken in the same sequence, the figures for `C[C@@H](NC(=O)c1ccccc1CNC(=O)C(=O)NCC#N)c1cc(-c2cnn(C3CC3)c2)cc(C(F)(F)F)c1` [Example 458] were below 1000 nM and below 100 nM.
`COC(=O)/C=C/CNC(=O)C(=O)NCc1ccccc1C(=O)N[C@H](C)c1cc(-c2cnn(C3CC3)c2)cc(C(F)(F)F)c1` [Example 459]: in experiment [1], the concentration giving a half-maximal response (EC50) lay within 1000 to 10000 nM. In addition, the IC50 in experiment [2] is below 100 nM.
Taken in the same sequence, the figures for `C[C@@H](NC(=O)c1ccccc1CNC(=O)C(=O)NCC#N)c1cc(-c2cccs2)cc(C(F)(F)F)c1` [Example 460] were below 1000 nM and below 100 nM.
Taken in the same sequence, the figures for `COC(=O)/C=C/CNC(=O)C(=O)NCc1ccccc1C(=O)N[C@H](C)c1cc(-c2cccs2)cc(C(F)(F)F)c1` [Example 461] were below 1000 nM and below 100 nM.

Source of the values: patent publication US20240327334A1, “Covalent Inhibitors As Antiviral Agents” (Enanta Pharmaceuticals, Inc., priority 2022, published 2024).
